Results as given in patent publication US8563503B2, “Antibiotic, its nucleotide sequence, methods of construction and uses thereof” (Protein Design Lab. Ltd., priority 2011, dated 2013).

Assays:
[1] = tested on: Staphylococcus aureus MRSA BAA-42; experiment: Protection test in vivo (intravenous injection) of infected mice; set-up: species or system Kungming mice; details: mice, infected with 6.5 × 10^5 cfu/ml i.p., drug once intravenous
Description: (§1) The drugs used in this embodiment were same with that used in embodiment 4.
(§2) The above drugs were dissolved and diluted by sterilized water, and the injection concentrations of each drug were 10 mg/kg, 5 mg/kg and 2.5 mg/kg.
(§3) After given intraperitoneal injection of fatal dose of above-mentioned bacteria, the mice of each drug experimental group respectively were given once intravenous injection of the drug by 10 mg, 5 mg, 2.5 mg/kg. The results were observed per 24 hours for 7-14 days. The positive result is mice's death.

Enterococcus ATCC 700802 [2] = experiment: as above; set-up: species or system Kungming mice; details: mice, infected with 7.0 × 10^6 cfu/ml i.p., drug once intravenous
Description: as §1, §2, §3

[3] = tested on: Staphylococcus aureus ATCC 29213; experiment: as above; set-up: species or system Kungming mice; details: mice, infected with 4.6 × 10^5 cfu/ml i.p., drug once intravenous
Description: as §1, §2, §3

E. coli 02-1-65 [4] = experiment: as above; set-up: species or system Kungming mice; details: mice, infected with 3.8 × 10^5 cfu/ml i.p., drug once intravenous
Description: as §1, §2, §3

Enterococcus ATCC 700802 [5] = experiment: MIC against the infecting strain (Table 2); type: cell-based, Enterococcus faecalis; details: ATCC700802
Description: (§4) (3) Culture Solution • MH Broth Culture Solution: 25 g was added into […] distilled water, heat to dissolve, subpackaged, autoclaved at 116° C. for 20 minutes, and MH Solid Culture Medium, 36 g was added into 1000 ml distilled water, autoclaved at 116° C. for 20 minutes, used for drug sensitive test of Gram-positive and negative aerobic bacteria. • Blood culture solution for Enterococcus faecalis, which was prepared by adding defibration rabbit blood into the MH culture solution by 5-10% and cultured at 37° C. in 5% CO2 for 24 hours. 2. Experimental Methods (1) The Measurement of Minimum Inhibitory Concentration (MIC) • The Minimum Inhibitory Concentration (MIC) of PMC-SA1 was measured by Agar Doubling Dilution Method. The bacterium was inoculated on the surface of agar plate containing different concentration of drugs by multipoint inoculate instrument (Deneley A400). The bacterial content per point was 10^5 CFU/ml. After incubated at 37° C. for 18-24 hours, the result can be observed. The least concentration of drugs in plate culture solution without bacterium growing was Minimum Inhibitory Concentration (MIC) of the drug to the said bacteria. 3. Results

Enterococcus = experiment: MIC by Agar Doubling Dilution Method, clinical isolates; type: cell-based, Enterococcus faecalis; details: Enterococcus clinical strains
Description: as §4

E. coli = experiment: as above; type: cell-based; details: E. coli clinical strains
Description: as §4

Baumanii = experiment: as above; type: cell-based; details: Baumanii clinical strains
Description: as §4

[6] = tested on: Staphylococcus epidermidis (MRSE); experiment: as above; type: cell-based; details: MRSE clinical strains
Description: as §4

[7] = tested on: Staphylococcus epidermidis (MSSE strain); experiment: as above; type: cell-based; details: MSSE clinical strains
Description: as §4

[8] = tested on: Staphylococcus aureus (MRSA); experiment: as above; type: cell-based; details: MRSA clinical strains
Description: as §4

[9] = tested on: Staphylococcus aureus (MSSA); experiment: as above; type: cell-based; details: MSSA clinical strains
Description: as §4

[10] = tested on: Staphylococcus aureus MRSA BAA-42; experiment: MIC against the infecting strain (Table 2); type: cell-based; details: Staphylococcus aureus MRSA BAA-42
Description: as §4

[11] = tested on: Staphylococcus aureus ATCC 29213; experiment: MIC against the infecting strain (Table 2); type: cell-based; details: ATCC29213
Description: as §4

E. coli 02-1-65 [12] = experiment: MIC against the infecting strain (Table 2); type: cell-based; details: E. coli 02-1-65
Description: as §4

[13] = tested on: methicillin-resistant Staphylococcus aureus ATCC BAA-42; experiment: Bacteria growth curve (A595 nm), comparison of the novel antibiotics; type: cell-based; details: drug 5 μg/ml, 37° C., A595 nm per hour
Description: The following experiment was set for comparing bacteriostasis effects of 6 kinds of the novel antibiotics. The experimental bacteriaum was United States Standard Strain methicillin-resistant Staphylococcus aureus ATCC BAA-42. 5 microliter of bacteria solution (10^6 CFU/ml level bacterium amount) was added into 10 ml culture solution containing 1% peptone, 1% NaCl, 0.5% yeast extract, 0.5% glucose and 0.1% K2HPO4, total of 8 groups were prepared. The first group as control was added 0.3 M NaCl+50 mM boric acid buffer fluid by the same volume as that of antibiosis polypeptide liquid added in any experimental groups, the second group was added penicillin G sodium by 5 μg/ml, PMC-SA1, PMC-SA2, PMC-SA3, PMC-SA4, PMC-SE and PMC-PA were added in the other experimental groups with preservative fluid being 0.3 M NaCl+50 mM boric acid buffer fluid by 5 ug/ml.
(§5) The solution of above groups was put into 100 ml conical flask, 200 rpm, grew at 37° C. 100 μl was sampled per hour, and added onto 96-pore ELISA plate and measured bacteria grown cloudiness by spectrophotometer (A595 nm) color comparison. The bacteria growth curve was drawn up to compare the bacteriostasis efficacy of antibiosis polypeptide.

[14] = tested on: methicillin-resistant Staphylococcus aureus (ATCC BAA-42); experiment: Transmission electron microscope observation of bactericidal effect; type: cell-based; details: oxacillin 500 μg/ml, […]
Description: Transmission Electron Microscope Observations of the Bactericidal Effect of the Novel Antibiotic PMC-SA1 on Methicillin-Resistant Staphylococcus aureus (ATCC BAA-42) (Dyed by 1% Phospho-Wolframic Acid, Magnified by 25,000 Fold)
Culture solution: 1% tryptone, 1% NaCl, 0.5% yeast extract, 0.5% glucose, 0.1% K2HPO4.
Con: control group, the bacterium was added to the above culture solution and proper amount of 0.3 M NaCl+50 mM boric acid buffer solution, 200 rpm, grew at 37° C. for 2 hours, and the bacterial appearance was still regular;
PMC: the bacterium was added to the above culture solution with 10 μg/ml PMC-SA1 for 0.5 hours.

[15] = tested on: Multiple-drug resistance Pseudomonas aeruginosa (clinical separated strain 13280); experiment: In vivo protection of mice infected by multiple-drug resistance Pseudomonas aeruginosa; set-up: species or system Kungming mice; details: 5 mg/kg intravenous, fatal dose i.p.
Description: (1) Drugs • PMC-PA, piperacillin, amikacin, ceftazidime, levofloxacin.
Multiple-drug resistance Pseudomonas aeruginosa (clinical separated strain 13280, isolated by laboratory bacteria room of West China Hospital)
Kungming mice (n=60), half male and half female, weighing 15-20 g were given intraperitoneal injection of multiple-drug resistance Pseudomonas aeruginosa, therein PMC-PA, piperacillin, amikacin, ceftazidime and levofloxacin experimental group were set respectively as 10 mice per group, while the control group was set as 10 mice per group. After given intraperitoneal injection of fatal dose of the bacterium, the mice in drug experimental groups respectively were given an intravenous injection of one kind of above drugs, the results were observed per 24 hours for continuous 10 days. The positive result was mouse's death.

[16] = tested on: Pseudomonas aeruginosa Standard Strain (ATCC 27853); experiment: Bacteria growth curve (A595 nm cloudiness), Pseudomonas aeruginosa; type: cell-based; details: drug 5 μg/ml, 37° C., A595 nm per hour
Description: The experimental bacterium was Pseudomonas aeruginosa Standard Strain (ATCC 27853) purchased from the Center for General Microorganism of the Administration (CGMCC). 5 microliter bacteria solution (10^6 CFU/ml level bacterium amount) was added into 10 ml MH culture solution. Seven groups are prepared. 0.3 M NaCl+50 mM boric acid buffer fluid which amount was identical to amount of antibiosis polypeptide liquid in the experimental group was added as control in the first group, 5 μg/ml wild-type colicin Ia was added in the second group, 5 μg/ml PMC-SA1 was added in the third group, and 5 μg/ml PMC-PA was added in the fourth group.
as §5, with “Liquid in the” for “The solution of”, “96-hole Elisa Plate to measure” for “96-pore ELISA plate and measured”

CC1(C)S[C@@H]2[C@H](NC(=O)[C@H](N)c3ccccc3)C(=O)N2[C@H]1C(=O)[O-].[Na+] [Ampicillin, Ampicillin Sodium]
ED50 [1]: 25.41 mg/kg | ED50 (Enterococcus ATCC 700802 [2]): 3.00 mg/kg | ED50 [3]: 14.05 mg/kg | ED50 (E. coli 02-1-65 [4]): >32 mg/kg | MIC (Enterococcus ATCC 700802 [5]): 2.5 µg/mL | MIC50 (Enterococcus): 0.5 µg/mL | MIC90 (Enterococcus): 16 µg/mL | Scope of MIC (Enterococcus): 0.25 to 16 µg/mL | MIC50 (E. coli): >128 µg/mL | MIC90 (E. coli): >128 µg/mL | MIC50 (Baumanii): >128 µg/mL | MIC90 (Baumanii): >128 µg/mL | MIC50 [6]: 16 µg/mL | MIC90 [6]: 64 µg/mL | Scope of MIC [6]: 0.06 to 64 µg/mL | MIC50 [7]: 0.03 µg/mL | MIC90 [7]: 0.25 µg/mL | MIC50 [8]: 16 µg/mL | MIC90 [8]: 32 µg/mL | Scope of MIC [8]: 0.06 to 64 µg/mL | MIC50 [9]: 0.25 µg/mL | MIC90 [9]: 1 µg/mL | Scope of MIC [9]: <0.015-0.025 ^ mg/L | MIC [10]: 16 µg/mL | MIC [11]: 1.5 µg/mL | MIC (E. coli 02-1-65 [12]): >128 µg/mL

Cc1onc(-c2ccccc2)c1C(=O)N[C@@H]1C(=O)N2[C@@H]1SC(C)(C)[C@@H]2C(=O)[O-].[Na+] [Oxacillin, Oxacillin Sodium]
bacteriostasis effect on growth of methicillin-resistant Staphylococcus aureus (bacteria growth curve) [13]: can hardly be restrained | MIC50 (Enterococcus): 16 µg/mL | bactericidal effect, bacterial appearance under transmission electron microscope [14]: the colour as well as appearance of the bacterium had changed, but the thallus was still integrated | bactericidal effect, bacterial appearance under transmission electron microscope ([14]; listed as oxacillin): the appearance of bacterium had changed, but thallus were still integrative | MIC50 [6]: 64 µg/mL | MIC50 [7]: 0.03 µg/mL | MIC90 [7]: 0.125 µg/mL | Scope of MIC [7]: <0.125-0.25 ^ mg/L | MIC50 [9]: 0.125 µg/mL | MIC90 [9]: 0.125 µg/mL | Scope of MIC [9]: <0.015-0.25 ^ mg/L

B1: PMC-PA: Staphylococcus aureus pheromone AgrD I connected to N-terminus of allosteric colicin Ia′; SEQ ID NO. 23; plasmid pBHC-PA (protein)
chain: YSTCDFIMSDPVRITNPAAESLGYDSDGREIMGVDIYLNPPRVDVFKGTPPAWSSFGNKTIWGGNEWVDDSPTRSDIEKRDKEITAYKNTLSAQQKENENKRTEAGKRLSAAIAAREKDENTLKTLRAGNADAADITRQEFRLLQAELREYGFRTEIAGYDALRLHTESRMLFADADSLRISPREARSLIEQAEKRQKDAQNADKKAADMLAEYERRKGILDTRLSELEKNGGAALAVLDAQQARLLGQQTRNDRAISEARNKLSSVTESLNTARNALTRAEQQLTQQKNTPDGKTIVSPEKFPGRSSTNHSIVVSGDPRFAGTIKITTSAVIDNRANLNYLLSHSGLDYKRNILNDRNPVVTEDVEGDKKIYNAEVAEWDKLRQRLLDARNKITSAESAVNSARNNLSARTNEQKHANDALNALLKEKENIRNQLSGINQKIAEEKRKQDELKATKDAINFTTEFLKSVSEKYGAKAEQLAREMAGQAKGKKIRNVEEALKTYEKYRADINKKINAKDRAAIAAALESVKLSDISSNLNRFSRGLGYAGKFTSLADWITEFGKAVRTENWRPLFVKTETIIAGNAATALVALVFSILTGSALGIIGYGLLMAVTGALIDESLVEKANKFWGI
modifications: The peptide of PMC-SA
notes: Staphylococcus aureus pheromone AgrD I connected to N-terminus of allosteric colicin Ia′; 23; plasmid pBHC-PA
bacteriostasis effect on growth of methicillin-resistant Staphylococcus aureus (bacteria growth curve) [13]: the worst | survival rate of mice in 10 days [15]: 100% | growth of Pseudomonas aeruginosa (bacteria growth curve) [16]: completely restrained | growth of Pseudomonas aeruginosa (bacteria growth curve) ([16]; listed as SEQ ID NO. 23): has antibacterial effect on Pseudomonas aeruginosa

B2: wild-type colicin Ia: wild-type bacterial toxin colicin Ia secreted by E. coli (protein, UniProt P06716 1-626, looked up)
Colicin-Ia: MSDPVRITNPGAESLGYDSDGHEIMAVDIYVNPPRVDVFHGTPPAWSSFGNKTIWGGNEWVDDSPTRSDIEKRDKEITAYKNTLSAQQKENENKRTEAGKRLSAAIAAREKDENTLKTLRAGNADAADITRQEFRLLQAELREYGFRTEIAGYDALRLHTESRMLFADADSLRISPREARSLIEQAEKRQKDAQNADKKAADMLAEYERRKGILDTRLSELEKNGGAALAVLDAQQARLLGQQTRNDRAISEARNKLSSVTESLNTARNALTRAEQQLTQQKNTPDGKTIVSPEKFPGRSSTNHSIVVSGDPRFAGTIKITTSAVIDNRANLNYLLSHSGLDYKRNILNDRNPVVTEDVEGDKKIYNAEVAEWDKLRQRLLDARNKITSAESAVNSARNNLSARTNEQKHANDALNALLKEKENIRNQLSGINQKIAEEKRKQDELKATKDAINFTTEFLKSVSEKYGAKAEQLAREMAGQAKGKKIRNVEEALKTYEKYRADINKKINAKDRAAIAAALESVKLSDISSNLNRFSRGLGYAGKFTSLADWITEFGKAVRTENWRPLFVKTETIIAGNAATALVALVFSILTGSALGIIGYGLLMAVTGALIDESLVEKANKFWGI
growth of Pseudomonas aeruginosa (bacteria growth curve) [16]: can not be effectively restrained
